Measurements as given in publication PMC7796184, “Phytochemical Characterization, In Vitro Anti-Inflammatory, Anti-Diabetic, and Cytotoxic Activities of the Edible Aromatic Plant; Pulicaria jaubertii” (Molecules, 2021).
In brackets after ≈: the same amount, converted by molar mass. Blank lines part the entries; values can stand above or below the molecule they belong to.

Columns and labels:
U937 human monocytes = assay: Histamine release assay (EIA kit) in PMA-treated U937 cells; type: cell-based; conditions: U-937, 20 nM Phorbol Myristate Acetate, 1 h, triplicate, read-out: Histamine release inhibition IC50
Method: In accordance with literature, extracts or standard diclofenac (7.81–1000 μg/mL) were added to U937 cells seeded in a 96-well plate in a concentration of 50,000 in presence or absence of 20 nM Phorbol Myristate Acetate. After 1 h, the treated and untreated cell cultures supernatants were collected and centrifuged at 10,000 rpm for 5 min at 4 °C. Then the samples were evaluated for released histamine by a commercially available EIA kit (SPI-Bio, Montigny le Bretonneux, France).

red blood cells (RBCs) = assay: Membrane stabilizing activity, hypotonic solution-induced hemolysis of RBCs; type: cell-based, rats; conditions: Erythrocyte, 10 min; rat RBCs, hypotonic solution pH 7.4, 10 min; triplicate; read-out: Membrane stabilization IC50 (inhibition of RBCs hemolysis)
Method: The method was conducted according to the literature. Erythrocyte suspension was prepared by withdrawing blood samples from rats with heparinized syringes through cardiac puncture. Then, phosphate buffer was used to wash blood samples three times with centrifugation after each washing at 3000 rpm for 10 min. […] Control samples were prepared by similar manner without extracts or indomethacin. Afterward, previous mixtures were withstanding for 10 min in room condition and subjected to 10 min centrifugation at 3000 rpm.

[1] = system: breast carcinoma (MCF-7) cell line; assay: cells; conditions: Homo sapiens, MCF7, read-out: Cytotoxicity IC50
Method: (§1) All cells were obtained from the American Type Culture Collection (ATCC, Rockville, MD, USA) and were cultured on RPMI 1640 medium supplemented with 10% inactivated fetal calf serum and 50 μg/mL gentamycin. The cells were maintained at 37 °C in a humidified atmosphere with 5% CO2 and were sub cultured two to three times a week. Cell viability percentage was calculated by the equation: Cell viability % = Ac/At × 100(5) where Ac = Absorbance obtained from of control cells, At = Absorbance obtained from treated cells.

[2] = system: hepatocarcinoma (HepG-2) cell line; assay: cells; conditions: Homo sapiens, HepG2, read-out: Cytotoxicity IC50
Method: as §1

[3] = system: prostate carcinoma (PC-3) cell line; assay: cells; conditions: Homo sapiens, PC-3, read-out: Cytotoxicity IC50
Method: as §1

IC50 (U937 human monocytes): 17.9 ± 1.6 µg/mL (≈ 60.6 µM)
Compound: O=C(O)Cc1ccccc1Nc1c(Cl)cccc1Cl [Diclofenac]

Compound: COc1ccc2c(c1)c(CC(=O)O)c(C)n2C(=O)c1ccc(Cl)cc1 [Indomethacin]
IC50 (red blood cells (RBCs)): 17 ± 0.72 µg/mL (≈ 47.6 µM)

Compound: CC[C@]1(O)C[C@@H]2CN(CCc3c([nH]c4ccccc34)[C@@](C(=O)OC)(c3cc4c(cc3OC)N(C)[C@H]3[C@@](O)(C(=O)OC)[C@H](OC(C)=O)[C@]5(CC)C=CCN6CC[C@]43[C@@H]65)C2)C1 [Vinblastine]
IC50 [1]: 4.6 ± 0.18 µg/mL (≈ 5.67 µM) | IC50 [2]: 4.6 ± 0.17 µg/mL (≈ 5.67 µM) | IC50 [3]: 5.5 ± 0.4 µg/mL (≈ 6.78 µM)
